≈ marks a conversion by molar mass, not a printed value.
Tests used:
WEHI-164 = experiment: Cytotoxicity against mouse WEHI164 cells by rapid colorimetric assay; type: functional, cell-based
HEK293 = experiment: Cytotoxicity against HEK293 cells by rapid colorimetric assay; type: cell-based; conditions: Homo sapiens
J774.A1 = experiment: Cytotoxicity against mouse J774A1 cells by rapid colorimetric assay; type: cell-based

| Structure (SMILES) | IC50 (WEHI-164) [µg/mL] | IC50 (HEK293) [µg/mL] | IC50 (J774.A1) [µg/mL] |
| --- | --- | --- | --- |
| C1=C\Cc2ccc[n+](c2)CCCCCCCC/C=C\Cc2ccc[n+](c2)CCCCCCCC/C=C\Cc2ccc[n+](c2)CCCCCCCC/1 | > 20 | > 20 | > 20 |
| C1=C\Cc2ccc[n+](c2)CCCCCCCC/C=C\Cc2ccc[n+](c2)CCCCCCCC/1 | > 20 | > 20 | > 20 |
| Sc1ncnc2nc[nH]c12 [MERCAPTOPURINE ANHYDROUS] | 0.0025 (≈ 0.0164 µM) | 0.00071 (≈ 0.00467 µM) | 0.0051 (≈ 0.0335 µM) |
